For experiment [1], the system named is db/db mice. Put plainly: Antidiabetic effects in db/db mice, four weeks of daily oral dosing. Type of experiment: in vivo. The note with it: 100 mg/kg daily oral, four weeks. The source says: Db/db mice have a defect in leptin signaling, leading to hyperphagia, obesity and diabetes. Moreover, unlike ob/ob mice which have relatively robust islets, their insulin-producing pancreatic islet cells undergo failure during chronic hyperglycemia, so that they transition from hyperinsulinemia (associated with peripheral insulin resistance) to hypoinsulinemic diabetes.
Male db/db mice were given daily oral treatments with vehicle (0.75% hydroxypropylmethylcellulose) or antidiabetic compounds as indicated below. Blood samples were obtained via the retro-orbital sinus for serum chemistry analysis, or via the tail vein for glucose measurement with a test strip and glucometer.
The dose of pioglitazone used in this experiment was reported in the literature to be a maximally-effective dose for treatment of db/db mice (Shimaya et al. (2000), Metabolism 49:411-7).

Experiment [2] concerns mice with lethal insulin-dependent diabetes. The experiment is described as follows: Survival of mice with lethal insulin-dependent diabetes (single dose streptozotocin). The note with it: 30 mg/kg/day oral gavage. Type of experiment: in vivo, Balb/C mice. As for the experimental part: Female Balb/C mice (14 weeks old) were treated with a single dose of streptozotocin (175 mg/kg i.p.) to induce severe insulin-dependent diabetes. Seven days later, mice were divided into three treatment groups: Compound AH, pioglitazone, and vehicle. Mice were treated daily via oral gavage, and survival was monitored over time.

For a further experiment, the system named is ob/ob mice. Put plainly: Hyperglycemia, hyperlipidemia, fatty liver disease and weight gain in ob/ob obese diabetic mice, daily oral dosing. The note with it: for Free Fatty Acids ± SEM / Glucose ± SEM / Triglycerides ± SEM / ALT (U/L) ± SEM / AST (U/L) ± SEM / SDH (U/L) ± SEM: 4 weeks; for Mean body weight gain (grams): four week treatment period; for ALT (U/L) ± SEM / AST (U/L) ± SEM / SDH (U/L) ± SEM: serum. Type of experiment: in vivo, C57BL/6 mice. The source says: Ob/ob mice have a defect in the gene for leptin, a protein involved in appetite regulation and energy metabolism, and are hyperphagic, obese, and insulin resistant. They develop hyperglycemia and fatty liver.

Experiment [3] concerns db/db mice. The experiment is described as follows: Antidiabetic effects in db/db mice, 2 weeks (Example I). Type of experiment: in vivo, C57BL/Ksola mice. The note with it: for Glucose / Glucose (% of Control): nonfasting; for Free Fatty Acids ± SEM / Triglycerides ± SEM: serum. The source says: db/db mice have a defect in leptin signaling, leading to hyperphagia, obesity and diabetes. Moreover, unlike ob/ob mice on a C57BL/6J background, db/db mice on a C57BL/KS background undergo failure of their insulin-producing pancreatic islet β cells, resulting in progression from hyperinsulinemia (associated with peripheral insulin resistance) to hypoinsulinemic diabetes.
(§1) A minimum of 7 days was allowed for adaptation after arrival.
Treatment cohorts were given daily oral doses of (1% hydroxypropylmethylcellulose), Compounds BI, BO, BP, BQ or BR for 2 weeks. At the end of the treatment period 100 μl of venous blood was withdrawn in a heparinized capillary tube from the retro-orbital sinus of db/db mice for serum chemistry analysis.

For experiment [4], the system named is Zucker Diabetic Fatty (ZDF) rats. The experiment is described as follows: Attenuation of cataractogenesis in Zucker Diabetic Fatty (ZDF) rats. It counts as in vivo. The note with it: 100 mg/kg daily oral, 10 weeks. The source says: Cataracts are one of the leading causes of progressive vision decline and blindness associated with ageing and diabetes, and the Zucker diabetic fatty (ZDF) model has many similarities with human cataractogenesis, including biochemical changes and oxidative stress in the lens. These rats, however, undergo cataractogenesis typically between 14-16 weeks of age.
Male ZDF rats and their aged-match Zucker lean (ZL) counterparts (fa/+ or +/+) were obtained from Genetic Models, Inc. (Indianapolis, Ind.) aged 12 weeks and acclimatized for 1 week prior to study. […] Treatment cohorts were given a daily oral dose of vehicle and 100 mg/kg of BI or BH for 10 weeks. […] At the end of the treatment period 100 μl of venous blood was collected (usually 10:00 A.M.) in a heparinized tube from the tail vein for serum chemistry analysis (Anilytics, Inc., Gaithersburg, Md.). […] Plasma insulin was measured by an electrochemiluminescent immunoassay, ECL (Origen Analyzer, Igen, Inc., Gaithersburg, Md.). The animals were sacrificed and tissues and/or organs (lens and liver) were extirpated, weighed (wet weight) and processed for biochemical analyses. Malondialdehyde (MDA), a major product of lipid peroxidation was assayed in lenses according to Ohkawa et al (1979), Analytical Biochem 95, 351-358).

Experiment [5] concerns high fat-fed C57Bl/6J mice. Put plainly: Circulating triglycerides, free fatty acids, insulin and leptin in high fat-fed C57Bl/6J mice. Type of experiment: in vivo. The note with it: for Free Fatty Acids / Triglycerides: after 2 weeks of drug treatments. The source says:
The high fat-fed mouse is a model for the hypertriglyceridemia and high circulating fatty acid levels, and the insulin and leptin resistance that are found in people at risk for and with obesity, diabetes, cardiovascular disease and other disorders. Male C57Bl/6J mice, approximately 8 weeks of age, were randomly assigned into groups of 6 animals. […] Mice were fed a high-fat diet (diet number D12451, containing 45% of calories as fat (Research Diets, New Brunswick, N.J.)) for 6 weeks. […]

The test system of experiment [6] is db/db mice. The experiment is described as follows: Antidiabetic effects in db/db mice, 2 weeks (Example J). It counts as in vivo, C57BL/Ksola mice.
Text: db/db mice have a defect in leptin signaling, leading to hyperphagia, obesity and diabetes. Moreover, unlike ob/ob mice on a C57BL/6J background, db/db mice on a C57BL/KS background undergo failure of their insulin-producing pancreatic islet cells, resulting in progression from hyperinsulinemia (associated with peripheral insulin resistance) to hypoinsulinemic diabetes.
as §1
Treatment cohorts were given daily oral doses of Vehicle (1% hydroxypropylmethylcellulose), Compounds BI, BS, BT, BU, BV or Fenofibrate for 2 weeks. At the end of the treatment period 100 μl of venous blood was withdrawn in a heparinized capillary tube from the retro-orbital sinus of db/db mice for serum chemistry analysis.

Experiment [7] relates to db/db mice. The experiment is described as follows: Antidiabetic effects in db/db mice, second experiment, 8 weeks of treatment. Type of experiment: in vivo. The source says: Blood samples were obtained via the retro-orbital sinus for serum chemistry analysis, or via the tail vein for glucose measurement with a test strip and glucometer.
Groups consisted of 6-8 mice each.

Experiment [8] has as its system ob/ob obese diabetic mice. The experiment is described as follows: Acute hypoglycemic effect in ob/ob obese diabetic mice: Experiment 1. It counts as in vivo. The note with it: single oral dose by gavage, 6 hours. As for the experimental part:
Male ob/ob diabetic mice were randomized into groups of five animals each. Body weights were 50-55 g and blood glucose was approximately 300 mg/dL in the fed state. A single oral dose of a test substance suspended in 0.5% carboxymethylcellulose vehicle was administered by gavage. Blood glucose was measured in blood droplets obtained by nicking a tail vein with a razor using glucometer test strips and a Glucometer Elite XL device (Bayer) at 0, 0.5, 2, 4, 6 and 18 hours after the initial dosing. A 10% reduction in blood glucose versus oral vehicle is considered a positive screening result. Blood glucose reductions were generally maximal at 6 hours after drug administration.

Experiment [9] relates to mice with severe insulin-dependent diabetes. Put plainly: Mortality in severe insulin-dependent diabetes (multiple high doses of STZ). Type of experiment: in vivo. The note with it: STZ 75 mg/kg i.p. x5 balb/C mice, 30 mg/kg/day oral, after three weeks of daily treatment. On the procedure:
Female balb/C mice (19 wks of age at start of experiment) were challenged with multiple high doses of STZ (75 mg/kg i.p. on 5 consecutive days). Animals were then divided in two groups (20 mice/group) matched for severity of diabetes. Four days after the last dose of STZ, treatments were initiated. One group received Vehicle (0.4 ml of 0.75% HPMC, p.o.), and the other group received oral COMPOUND AA (30 mg/kg/day). After three weeks of daily treatment, cumulative mortality in the Vehicle Control group was 19/20 mice. In contrast, only 5/20 of the COMPOUND AA mice died during this time.

The mark [10] stands for this setting: nonfasting, 100 mg/kg daily oral.
[11] abbreviates: serum, daily oral, dose per Table 12: 100 mg/kg.
Setting [12] is: 150 mg/kg, 8 weeks of treatment.

As for `CCc1ccc(CCOc2ccc(CC3SC(=O)NC3=O)cc2)nc1` (stereo not drawn) [Pioglitazone, pioglitazone, reference compound], in the experiment on db/db mice [1], the “Glucose” value is 558 ± 28 mg/dL and the “Glucose (% of Control)” value was 99 ± 5 % of Control. In experiment [2], the “body weight lost by survivors at 12 weeks” value was 15-20%. The “Survivors (Survival at 12 weeks)” value in experiment [2] (STZ 175 mg/kg i.p. Balb/C mice) is reported as 2/5. Moreover, in the experiment on ob/ob mice (30 mg/kg/day oral), the “Free Fatty Acids ± SEM” value is 2606 ± 139.2 µmol/L, the “Glucose ± SEM” value is recorded as 188.2 ± 21.4 mg/dL, the “Triglycerides ± SEM” value was 111.2 ± 7.5 mg/dL and the “ALT (U/L) ± SEM” value is given as 713.6 ± 80.6 U/L. Further, in the experiment on ob/ob mice (30 mg/kg/day oral), the “AST (U/L) ± SEM” value stood at 1024 ± 88.7 U/L and the “SDH (U/L) ± SEM” value worked out at 782.0 ± 70.6 U/L. In addition, the “Mean body weight gain (grams)” value in the experiment on ob/ob mice (30 mg/kg/day) is “+10.0 grams”. For the same compound, in the experiment on ob/ob mice (100 mg/kg/day oral), the “Free Fatty Acids ± SEM” value was determined as 1983.4 ± 66.1 µmol/L, the “Glucose ± SEM” value is on record as 174.6 ± 11.5 mg/dL, the “Triglycerides ± SEM” value is 95.2 ± 4.8 mg/dL and the “ALT (U/L) ± SEM” value is given as 646.0 ± 56.1 U/L. Besides, in the experiment with ob/ob mice (100 mg/kg/day oral), the “AST (U/L) ± SEM” value came out at 901.0 ± 49.3 U/L and the “SDH (U/L) ± SEM” value is reported as 603.0 ± 27.3 U/L. Further, the “Mean body weight gain (grams)” value in the experiment with ob/ob mice (100 mg/kg/day) is reported as “+13.6 grams”.

Turning to `Cc1cccc(C)c1COc1cccc(C(=O)CCC(=O)O)c1` [Compound BI, 4-(3-(2,6-Dimethylbenzyloxy)phenyl)-4-oxobutyric acid], in the experiment with db/db mice [3] (100 mg/kg daily oral), the “Glucose” value is recorded as 423 ± 53 mg/dL, the “Glucose (% of Control)” value is 67 ± 8 % of Control, the “Free Fatty Acids ± SEM” value turned out to be 2999.9 ± 98.7 µM and the “Triglycerides ± SEM” value was determined as 134.0 ± 13.1 mg/dL. Besides, in the experiment on db/db mice [3] (150 mg/kg daily oral), the “Glucose” value was 279 ± 35 mg/dL, the “Glucose (% of Control)” value is given as 44 ± 6 % of Control, the “Free Fatty Acids ± SEM” value was 2234.0 ± 162.6 µM and the “Triglycerides ± SEM” value was 103.6 ± 8.3 mg/dL. Besides, in experiment [4], the “% Protection Left Eye” value is reported as 50%, the “% Protection Right Eye” value was 83%, the “Cataract Formation Left Eye” value is on record as 3/6 and the “Cataract Formation Right Eye” value is on record as 1/6. In [4] (means ± SEM), the “Lenticular MDA” value was 0.8 ± 0.1 nmol/g lens, the “Size (mm) Left Lens” value worked out at 3.4 ± 0.2 mm, the “Size (mm) Right Lens” value is recorded as 3.8 ± 0.1 mm and the “Weight (mg) Left Lens” value is on record as 38.1 ± 7.3 mg. In experiment [4] (means ± SEM), the “Weight (mg) Right Lens” value is given as 54.9 ± 1.2 mg. Further, in experiment [5] (10 mg/kg oral gavage), the “Free Fatty Acids” value came to 1227 ± 193.7 µmol/L and the Triglycerides was 68.8 ± 5.7 mg/dL. Also, in experiment [5] (30 mg/kg oral gavage), the “Free Fatty Acids” value stood at 1292 ± 231.4 µmol/L and the Triglycerides is 66.5 ± 14.7 mg/dL. In addition, in experiment [5] (100 mg/kg oral gavage), the “Free Fatty Acids” value amounted to 992.8 ± 172.1 µmol/L and the Triglycerides came out at 37.4 ± 8.3 mg/dL. Also, the “serum triglycerides and free fatty acids” value in experiment [5] (oral gavage) was “effective at lowering”. Further, the insulin serum levels result in [5] (oral gavage, after 4 weeks of drug treatments (FIG. 1)) is on record as “effective at lowering”. The leptin serum levels result in experiment [5] (oral gavage, after 4 weeks of drug treatments (FIG. 2)) is reported as “effective at lowering”. In the experiment on db/db mice [6] (setting [10]), the “Glucose” value was 347.0 ± 43.1 mg/dL and the “Glucose (% of Control)” value is on record as 50 ± 6 % of Control. For the same compound, in the experiment on db/db mice [6] (setting [11]), the “Free Fatty Acids ± SEM” value is 1997.2 ± 196.4 µM and the “Triglycerides ± SEM” value was 77.8 ± 5.3 mg/dL. Further, in the experiment with db/db mice [7] (setting [12]), the Glucose worked out at 254 ± 30 mg/dL and the Triglycerides amounted to 99 ± 8 mg/dL. Besides, the “blood glucose and triglycerides compared to vehicle-treated controls” value in the experiment on db/db mice [7] (after 8 weeks of treatment) is reported as “significantly lower”.

Regarding `O=C(O)CCC(=O)c1ccc(OCc2ccccc2F)cc1` [Compound AA, 4-(4-(2-Fluorobenzyloxy)phenyl)-4-oxobutyric acid], in experiment [8], the “% Reduction vs Control” value was −18.5 ± 8.4% and the “Blood Glucose after 6 hours” value came out at 242 ± 25 mg/dL. In addition, in [9], the cumulative mortality was 5/20.

For the origin of these results see US6924314B2, “Compounds for the treatment of metabolic disorders” (Wellstat Therapeutics Corporation, priority 2001, dated 2005).
